In US9556158B2, “Fungicidal 3-[(pyridin-2-ylmethoxyimino)(phenyl)methyl]-2-substituted-1,2,4-oxadiazol-5(2H)-one derivatives” (BAYER INTELLECTUAL PROPERTY GMBH, priority 2011, dated 2017):
Like-named read-outs stand apart in the source and are kept apart here.

Conditions: HPLC on reversed phase columns, pH 2.7, 0.1% formic acid in water / acetonitrile gradient; for chromatographic logP: pH 2.7, LogP
[1] = compounds of formula (V), Table 2

Experimental: Measurement of log P values was performed according EEC directive 79/831 Annex V.A8 by HPLC (High Performance Liquid Chromatography) on reversed phase columns with the following method:
Measurement of LC-MS was done at pH 2.7 with 0.1% formic acid in water and with acetonitrile (contains 0.1% formic acid) as eluent with a linear gradient from 10% acetonitrile to 95% acetonitrile.
Calibration was done with not branched alkan2-ones (with 3 to 16 carbon atoms) with known log P-values (measurement of log P values using retention times with linear interpolation between successive alkanones). lambda-maX-values were determined using UV-spectra from 200 nm to 400 nm and the peak values of the chromatographic signals.

Compound	chromatographic logP	other results
C#CCCOC(=O)Nc1cccc(CON=C(c2cccc(F)c2F)c2nc(=O)on2C)n1 [Example 189]	2.78	
Cn1oc(=O)nc1C(=NOCc1cccc(NC(=O)OC(C)(C)C)n1)c1cccc(F)c1F [Example 187]		LogP: 3.33
COc1ccc(OC(=O)Nc2cccc(CON=C(c3ccccc3)c3nc(=O)on3C)n2)cc1 [Example 185]	3.15	
Cn1oc(=O)nc1C(=NOCc1cccc(NC(=O)c2ccc(F)cc2)n1)c1ccccc1 [Example 157]	3.04	
C#CCCOC(=O)Nc1cccc(CO/N=C(\C(=N)N(C)O)c2ccccc2)n1 [Example V-01, but-3-yn-1-yl (6-{[({(1Z)-2-[hydroxy(methyl)amino]-2-imino-1-phenylethylidene}amino)oxy]methyl}pyridin-2-yl)carbamate]		chromatographic logP [1]: 1.63
Cn1oc(=O)nc1C(=NOCc1cccc(NC(=O)CCC2CCCC2)n1)c1ccccc1 [Example 145]	3.72	
Cn1oc(=O)nc1C(=NOCc1cccc(N)n1)c1cccc(F)c1F [Example 192]	0.96	
CC#CCOC(=O)Nc1cccc(CON=C(c2ccccc2)c2nc(=O)on2C)n1 [Example 134]	2.84	
Cn1oc(=O)nc1C(=NOCc1cccc(NC(=O)c2ccccc2)n1)c1ccccc1 [Example 160]	2.92	
Cn1oc(=O)nc1C(=NOCc1cccc(NC(=O)OCCc2ccccc2)n1)c1cccc(F)c1F [Example 190]	3.62	
Cc1cccc(C(=NOCc2cccc(NC(=O)Cc3ccccc3)n2)c2nc(=O)on2C)c1 [Example 81]	3.23	
COc1cccc(C(=NOCc2cccc(NC(=O)CCc3ccccc3)n2)c2nc(=O)on2C)c1 [Example 164]	3.27	
COCCN(O)C(=N)C(=NOCc1cccc(NC(=O)OC(C)(C)C)n1)c1ccccc1 [Example V-07]		chromatographic logP [1]: 1.93
CCCCCC(=O)Nc1cccc(CON=C(c2ccccc2)c2nc(=O)on2CCOC)n1 [Example 175]	3.5	
CC(OC(=O)Nc1cccc(CON=C(c2ccccc2)c2nc(=O)on2C)n1)C1CCCC1 (centres unmarked) [Example 179]	4.15	
C#CCCCOC(=O)Nc1cccc(CON=C(c2ccccc2)c2nc(=O)on2C)n1 [Example 122]	2.94	
COc1cccc(C(=NOCc2cccc(NC(=O)c3ccc(F)cc3)n2)c2nc(=O)o[nH]2)c1 [Example 62]	3.09	
Cn1oc(=O)nc1C(=NOCc1cccc(NC(=O)OCc2ccccc2Cl)n1)c1ccccc1 [Example 184]	3.76	
CN(O)C(=N)/C(=N\OCc1cccc(NC(=O)OC(C)(C)C)n1)c1cccc(F)c1 [Example V-05, tert-butyl (6-{[({(1Z)-2-[hydroxy(methyl)amino]-2-imino-1-(3-fluorophenyl)ethylidene}amino)oxy]methyl}pyridin-2-yl)carbamate]		chromatographic logP [1]: 1.86
C=CCCCOC(=O)Nc1cccc(CON=C(c2ccccc2)c2nc(=O)on2C)n1 [Example 129]	3.41	
CCN(O)C(=N)/C(=N\OCc1cccc(NC(=O)OC(C)(C)C)n1)c1ccccc1 [Example V-08, tert-butyl (6-{[({(1Z)-2-[hydroxy(ethyl)amino]-2-imino-1-(phenyl)ethylidene}amino)oxy]methyl}pyridin-2-yl)carbamate]		chromatographic logP [1]: 1.9
CC(C(=O)Nc1cccc(CON=C(c2ccccc2)c2nc(=O)on2C)n1)c1ccccc1 (centres unmarked) [Example 155]	3.29	
C#CCCCC(=O)Nc1cccc(CON=C(c2ccccc2)c2nc(=O)on2C)n1 [Example 149]	2.6	

Compound	chromatographic logP	other results
C#CCCCCOC(=O)Nc1cccc(CON=C(c2ccccc2)c2nc(=O)on2C)n1 [Example 124]	3.21	
Cn1oc(=O)nc1C(=NOCc1cccc(NC(=O)C2(C)CCCCC2)n1)c1ccccc1 [Example 136]	3.68	
C=CCCCCOC(=O)Nc1cccc(CON=C(c2ccccc2)c2nc(=O)on2C)n1 [Example 123]	3.76	
Cn1oc(=O)nc1/C(=N\OCc1cccc(N)n1)c1ccccc1 [Example 11, 3-[(Z)-{[(6-aminopyridin-2-yl)methoxy]imino}(phenyl)methyl]-2-methyl-1,2,4-oxadiazol-5(2H)-one]	0.84	
Cn1oc(=O)nc1C(=NOCc1cccc(NC(=O)CC2CCCC2)n1)c1ccccc1 [Example 115]	3.29	
C#CCOC(=O)Nc1cccc(CON=C(c2cccc(C)c2)c2nc(=O)on2C)n1 [Example 108]	2.84	
CC(OC(=O)Nc1cccc(CON=C(c2ccccc2)c2nc(=O)on2C)n1)C1CCCCC1 (centres unmarked) [Example 141]	4.56	
Cc1cccc(C(=NOCc2cccc(NC(=O)OCCC(C)C)n2)c2nc(=O)on2C)c1 [Example 91]	4.03	
COCCn1oc(=O)nc1C(=NOCc1cccc(NC(=O)OC(C)(C)C)n1)c1ccccc1 [Example 42]	3.61	
CN(O)C(=N)/C(=N\OCc1cccc(NC(=O)OC(C)(C)C)n1)c1ccccc1 [Example V-02, tert-butyl (6-{[({(1Z)-2-[hydroxy(methyl)amino]-2-imino-1-phenylethylidene}amino)oxy]methyl}pyridin-2-yl)carbamate]		chromatographic logP [1]: 1.81
CCCCCCC(=O)Nc1cccc(CON=C(c2ccccc2)c2nc(=O)on2C)n1 [Example 120]	3.65	
Cc1cccc(C(=NOCc2cccc(NC(=O)Cc3cccc(F)c3)n2)c2nc(=O)on2C)c1 [Example 98]	3.31	
CN(O)C(=N)C(=NOCc1cccc(N)n1)c1ccccc1 [Example V-03]		chromatographic logP [1]: 0.22
Cc1ccc(C(=O)Nc2cccc(CON=C(c3cccc(F)c3)c3nc(=O)o[nH]3)n2)cc1 [Example 77]	3.33	
Cn1oc(=O)nc1C(=NOCc1cccc(NC(=O)Cc2ccccc2)n1)c1ccccc1 [Example 126]	2.94	
CN(O)C(=N)C(=NOCc1cccc(NC(=O)OC(C)(C)C)n1)c1ccccc1C(F)F [Example V-11]		chromatographic logP [1]: 2.43
Cn1oc(=O)nc1C(=NOCc1cccc(NC(=O)CCc2ccccc2)n1)c1ccccc1 [Example 119]	3.21	
C=CCC(C)OC(=O)Nc1cccc(CON=C(c2ccccc2)c2nc(=O)on2C)n1 (centres unmarked) [Example 152]	3.39	
C/C=C/CCCOC(=O)Nc1cccc(CON=C(c2ccccc2)c2nc(=O)on2C)n1 [Example 183]	3.81	
C#CCOC(=O)Nc1cccc(CON=C(c2cccc(OC)c2)c2nc(=O)on2C)n1 [Example 95]	2.63	
CC(C)CCOC(=O)Nc1cccc(CON=C(c2ccccc2)c2nc(=O)on2C)n1 [Example 161]	3.74	
Cn1oc(=O)nc1C(=NOCc1cccc(NC(=O)OCCC2CC2)n1)c1ccccc1 [Example 138]	3.39	
CCC(C)(C)C(=O)Nc1cccc(CON=C(c2ccccc2)c2nc(=O)on2C)n1 [Example 176]	3.17	

Compound	chromatographic logP	other results
Cn1oc(=O)nc1C(=NOCc1cccc(NC(=O)C2CCCCC2)n1)c1ccccc1 [Example 146]	3.29	
Cn1oc(=O)nc1C(=NOCc1cccc(NC(=O)c2csc3ccccc23)n1)c1ccccc1 [Example 142]	3.65	
Cn1oc(=O)nc1C(=NOCc1cccc(NC(=O)OCCCCl)n1)c1ccccc1 [Example 133]	3.02	
COc1cccc(C(=NOCc2cccc(NC(=O)Cc3ccccc3)n2)c2nc(=O)on2C)c1 [Example 166]	3.02	
CC#CCC(C)OC(=O)Nc1cccc(CON=C(c2ccccc2)c2nc(=O)on2C)n1 (centres unmarked) [Example 151]	3.31	
CC#CCCOC(=O)Nc1cccc(CON=C(c2ccccc2)c2nc(=O)on2C)n1 [Example 156]	3	
COc1cccc(C(=NOCc2cccc(NC(=O)OC(C)(C)C)n2)C(=N)N(C)O)c1 [Example V-06]		chromatographic logP [1]: 1.86
Cc1cccc(C(=NOCc2cccc(NC(=O)OCCc3ccccc3)n2)c2nc(=O)on2C)c1 [Example 168]	3.85	
CCn1oc(=O)nc1C(=NOCc1cccc(N)n1)c1ccccc1 [Example 111]	1.07	
CN(O)C(=N)/C(=N\OCc1cccc(Br)n1)c1ccccc1 [Example V-12, (2Z)-2-{[(6-bromopyridin-2-yl)methoxy]imino}-N-hydroxy-N-methyl-2-phenylethanimidamide]		chromatographic logP [1]: 1.39
Cn1oc(=O)nc1C(=NOCc1cccc(NC(=O)CCC2CCCCC2)n1)c1ccccc1 [Example 147]	4.06	
Cc1cccc(C(=NOCc2cccc(NC(=O)CCc3ccccc3)n2)c2nc(=O)on2C)c1 [Example 79]	3.48	
Cn1oc(=O)nc1C(=NOCc1cccc(NC(=O)OCCC2CCCCC2)n1)c1ccccc1 [Example 158]	4.63	
Cn1oc(=O)nc1C(=NOCc1cccc(NC(=O)COc2ccccc2)n1)c1ccccc1 [Example 139]	3.13	
Cn1oc(=O)nc1C(=NOCc1cccc(NC(=O)OCCCC2CC2)n1)c1ccccc1 [Example 181]	3.76	
CC(C)n1oc(=O)nc1C(=NOCc1cccc(NC(=O)OC(C)(C)C)n1)c1ccccc1 [Example 41]	3.8	
Cn1oc(=O)nc1/C(=N\OCc1cccc(Br)n1)c1ccccc1 [Example 193, 3-[(Z)-{[(6-bromopyridin-2-yl)methoxy]imino}(phenyl)methyl]-2-methyl-1,2,4-oxadiazol-5(2H)-one]	2.75	
Cn1oc(=O)nc1C(=NOCc1cccc(NC(=O)OCCCC2CCCC2)n1)c1ccccc1 [Example 130]	4.68	
COc1cccc(C(=NOCc2cccc(NC(=O)c3cccc(C)c3)n2)c2nc(=O)o[nH]2)c1 [Example 61]	3.31	
C#CCC(C)OC(=O)Nc1cccc(CON=C(c2ccccc2)c2nc(=O)on2C)n1 (centres unmarked) [Example 125]	2.98	
Cc1cccc(C(=O)Nc2cccc(CON=C(c3cccc(C)c3)c3nc(=O)on3C)n2)c1 [Example 86]	3.55	
CC(C)CC(=O)Nc1cccc(CON=C(c2cccc(F)c2)c2nc(=O)on2C)n1 [Example 90]	2.92	
